Reference: patent US5317026A, “Acetamide derivative and application thereof” (Snow Brand Milk Products Co., Ltd., priority 1992, dated 1994)

Key:
[1] = system: water immersion restrained stress induced ulcer; experiment: Water immersion restrained stress induced model; type: in vivo, Wister male rats; conditions: for Suppression / Ulcer index: water immersion stress 7 hours; for Ulcer index: control 10.3 ± 4.5; for ED50: po, rat, per os, read-out: ED50 values in rat ulcer models, water immersion restrained stress induced model; for suppression of ulcers induced by the water dipping stress (in words): rats
Method: Experiments were carried out to investigate the pharmacological activity of Compound RT using ulcer models in Wister male rats. […] Cetraxate and Roxatidine, each suspended in 0.5% carboxymethyl cellulose (CMC), were administered to the rats using a per os probe, in an amount of 0.4 ml/100 g. 10 to 20 minutes after the administration, the animals were placed in an stress cage (manufactured by Natsume Manufacturing Co.) and dipped into water in a thermostat water bath at 21° C. to a depth of their processus xiphoideus to give a stress. After 7 hours, rats were taken out from the cage and sacrificed to cut out their stomach. 10 ml of a 2% formalin solution was charged into each stomach and the stomach was fixed in the solution for 10 minutes. After fixing, the stomach was opened along the greater curvature, and its mucosal surface was roughly washed with water. […] The total of such length (mm) in each animal was taken as an index for the ulcer production. The ulcer suppression rate (%) was determined based on the index applying the following formula. [(Ulcer index for the control)-(Ulcer index for the tested animal)]/(Ulcer index for the control)×100 (3) In order to more clearly identify the activity of Compound RT, both Roxatidine and Cetraxate hydrochloride were administered altogether.

[2] = system: hydrochloric acid-ethanol induced ulcer; experiment: Hydrochloric acid-ethanol induced ulcer; type: in vivo, Wister male rats; conditions: for Suppression / Ulcer index: 60% ethanol containing 150 mM HCl, 1 hour; for Ulcer index: control 41.0 ± 10.9; for ED50: po, rat, per os, read-out: ED50 values in rat ulcer models, hydrochloric acid-ethanol induced ulcer; for suppression of ulcers induced by hydrochloric acid-ethanol (in words): rats
Method: Experiments were carried out to investigate the pharmacological activity of Compound RT using ulcer models in Wister male rats. Comparative tests were performed using commercial antiulcer drugs; Cetraxate (trade mark) and Roxatidine (trade mark), each having the following chemical structure. [drawing 11] [(Ulcer index for the control)-(Ulcer index for the tested animal)]/(Ulcer index for the control)×100 Groups of Wister male rats weighing 200-230 g, each group consisting of four rats, were fasted for 24 hours and subjected to the experiment. Cetraxate and Roxatidine, each suspended in 0.5% CMC, were administered to the rats using a per os probe, in an amount of 0.4 ml/100 g. […] After 1 hour, rats were sacrificed to cut out their stomach. 10 ml of a 2% formalin solution was charged into each stomach and the stomach was fixed in the solution for 10 minutes. After fixing, the stomach was opened along the greater curvature, and its mucosal surface was roughly washed with water. […] The total of such length (mm) in each animal was taken as an index for the ulcer production. The ulcer suppression rate (%) was determined in the same manner as above. (3) In order to more clearly identify the activity of Compound RT, both Roxatidine and Cetraxate hydrochloride were administered altogether.

[3] = water immersion model, than Cetraxate and Roxatidine
[4] = hydrochloric acid-ethanol model, than Cetraxate and Roxatidine

Row | Structure (SMILES) | Suppression ([1]; 25 mg/kg per os) | Ulcer index ([1]; 25 mg/kg per os) | ED50 [1] | Suppression ([2]; 40 mg/kg per os) | Ulcer index ([2]; 40 mg/kg per os) | ED50 [2] | Suppression ([1]; 36 mg/kg per os) | Ulcer index ([1]; 36 mg/kg per os) | suppression of ulcers induced by the water dipping stress (in words) [1] | effect on the suppression of the acute gastroduodenal ulcer compared with combined use of the two comparative drugs (in words) ([1]; versus combined use of the two comparative drugs) | rate of suppression compared with Cetraxate and Roxatidine (in words) [1, 3] | ulcer index compared with Cetraxate and Roxatidine (in words) [1, 3] | Suppression ([2]; 58 mg/kg per os) | Ulcer index ([2]; 58 mg/kg per os) | rate of suppression compared with Cetraxate and Roxatidine (in words) [2, 4] | ulcer index compared with Cetraxate and Roxatidine (in words) [2, 4] | suppression of ulcers induced by hydrochloric acid-ethanol (in words) [2] | activity against the hydrochloric acid-ethanol induced ulcer compared with combined Roxatidine and Cetraxate hydrochloride (in words) ([2]; versus Roxatidine and Cetraxate hydrochloride administered altogether)
1 | NC[C@H]1CC[C@H](C(=O)Oc2ccc(CCC(=O)O)cc2)CC1 [Cetraxate, reference compound] | 41.7% | 6.0 ± 3.3 mm | 200 mg/kg | 12.5% | 35.9 ± 14.7 mm | 60 mg/kg | – | – | – | – | – | – | – | – | – | – | – | –
2 | NC[C@H]1CC[C@H](C(=O)OCC(=O)NCCCOc2cccc(CN3CCCCC3)c2)CC1 [Compound RT, 2-(trans-p-aminomethylcyclohexanecarboxy)-N-{3-[3-(1-piperidinomethyl)phenoxy]propyl}acetamide] | – | – | – | – | – | – | 93.2% | 0.7 ± 0.5 mm | effectively suppress the ulcers | remarkably greater effect | higher rate of suppression | lower ulcer index | 87.6% | 5.1 ± 5.5 mm | higher rate of suppression | lower ulcer index | effectively suppress the ulcers | almost the same as the case where both Roxatidine and Cetraxate hydrochloride were administered altogether
3 | O=C(COC(=O)[C@H]1CC[C@H](CNC(=O)OCc2ccccc2)CC1)NCCCOc1cccc(CN2CCCCC2)c1 [Compound RTP, 2-(N-carbobenzoxy-trans-p-aminomethylhexanecarboxy)-N-{3-[3-(1-piperidinomethyl)-phenoxy]propyl}acetamide] | – | – | – | – | – | – | – | – | effectively suppress the ulcers | – | – | – | – | – | – | – | effectively suppress the ulcers | –
4 | O=C(CO)NCCCOc1cccc(CN2CCCCC2)c1 [Roxatidine, N-[3-(3-piperidinomethylphenoxy)propyl]hydroxyacetamide, reference compound] | 75.7% | 2.5 ± 1.6 mm | 25 mg/kg | 64.2% | 14.7 ± 9.9 mm | 40 mg/kg | – | – | – | – | – | – | – | – | – | – | – | –
